The values below come from patent publication US20090023733A1, “Piperidine Derivatives, Their Process for Preparation, Their Use as Therapeutic Agents and Pharmaceutical Compositions Containing Them” (priority 2006, published 2009).

Data set [1] deals with T1, human recombinant CCR3 receptors (Homo sapiens, UniProt P51677).
T1 construct: expressed in transfected cells
T1 sequence (P51677 1-355): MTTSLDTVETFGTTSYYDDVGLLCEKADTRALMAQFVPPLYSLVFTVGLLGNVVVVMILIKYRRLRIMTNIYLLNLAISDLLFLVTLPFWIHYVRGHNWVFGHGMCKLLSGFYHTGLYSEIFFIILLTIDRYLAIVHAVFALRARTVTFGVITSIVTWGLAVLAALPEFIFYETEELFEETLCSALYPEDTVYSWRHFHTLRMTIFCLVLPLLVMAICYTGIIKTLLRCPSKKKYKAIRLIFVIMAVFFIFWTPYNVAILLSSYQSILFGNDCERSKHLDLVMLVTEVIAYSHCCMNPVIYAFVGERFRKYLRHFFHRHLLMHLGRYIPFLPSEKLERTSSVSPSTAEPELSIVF
The data set can be described thus: Compound affinity at human recombinant CCR3 receptors by competition of [3H]-4-(2,4-dichloro-3-methylphenoxy)-1'-[4-(methylsulfonyl)benzoyl]-1,4'-bipiperidine, CHO-K1 cell membranes. The format is binding. As to conditions: mean pKi (Cheng-Prussof correction of pIC50), minimum of 2 experiments, recombinant human CCR3, 2 nM radioligand, 2 h at 37° C. On the procedure: Determination of Compound Affinity at Human Recombinant CCR3 Receptors Assessed By Competition Of [^3H]-4-(2,4-dichloro-3-methylphenoxy)-1′-[4-(methylsulfonyl)benzoyl]-1,4′-bipiperidine for CHO—K1 Cell Membranes In Vitro
Membranes, prepared from CHO—K1 cells stably expressing recombinant human CCR3, suspended in assay buffer (50 mM Tris-Base, pH 7.4; containing sodium chloride (100 mM) and magnesium chloride (2 mM)) were incubated in the presence of 2 nM [^3H]-4-(2,4-dichloro-3-methylphenoxy)-1′-[4-(methylsulfonyl)benzoyl]-1,4′-bipiperidine, along with vehicle (1% (v/v) DMSO), 4-(4-chloro-3-methylphenoxy)-1′-[2-(methylsulfonyl)benzoyl]-1,4′-bipiperidine (to define non-specific binding) or test compound for 2 h at 37° C. in round bottomed 96-well plates. The plates were then filtered onto GF/B filter plates, pre-soaked for 1 hour in plate-coating solution (0.3% (w/v) polyethylenimine, 0.2% (w/v) BSA in de-ionised water), using a 96-well plate Tomtec cell harvester. Four washes (250 μL) with wash buffer (50 mM Tris-Base, pH 7.4 containing sodium chloride (500 mM) and magnesium chloride (2 mM)) were performed at 4° C. to remove unbound radioactivity. Plates were dried and MicroScint-O (50 μL) was added to each well. The plates were sealed (TopSeal A) and filter-bound radioactivity was measured with a scintillation counter (TopCount, Packard BioScience) using a 1 minute counting protocol.
Specific binding was determined from values of the control wells minus the values for the NSB wells for each assay plate. pIC50 values were calculated using a four parameter logistic fit (where pIC50 is defined as the negative logarithm of the concentration of compound required for 50% reduction in specific [^3H]-4-(2,4-dichloro-3-methylphenoxy)-1′-[4-(methylsulfonyl)benzoyl]-1,4′-bipiperidine binding). Data were presented as mean pKi values (calculated by applying a Cheng-Prussof correction to pIC50 values) from a minimum of 2 separate experiments.

Data set [2] can be described thus: Determination of intrinsic clearance with human liver microsomes. It counts as in vitro ADME. As to conditions: human liver microsomes 1 mg protein/ml, NADPH, pH 7.4; CLint=ln 2/T1/2. On the procedure:
Determination of Intrinsic Clearance with Human Liver Microsomes
Frozen human liver microsomes (BD Gentest, Oxford) were defrosted and were then diluted with 0.1 M pH 7.4 phosphate buffer at 4° C. to 1 mg protein/ml. 0.45 mL aliquots of the microsome suspension were dispensed into flat-bottomed vials (1 per compound) and were allowed to come to room temperature (5 min). During the warming time, 5 μL of solution of each test compound (typically 100 μM in DMSO) was dispensed into separate vials resulting in a final DMSO concentration of 1%. 50 μL of a 10 mM solution of NADPH in phosphate buffer ([…] pH 7.4, 37° C.) was added to each vial to initiate metabolism.
50 μL Aliquots of the mixtures were removed at measured intervals and were immediately quenched by addition to 100 μL of methanol cooled in ice. The quenched samples were kept cold (at −20° C. or less) for at least 1 h and were then centrifuged to remove protein.
The supernatant solution was analysed using quantitative LCMS for the presence of test compound. From the concentrations of test compound at different time points a T1/2 may be calculated which may be converted to an intrinsic clearance using the equation: CLint=ln 2/T1/2.

Structures are written as SMILES. Bounds are passed on as bounds.

On to `O=C(CSc1ccccc1C(=O)O)NC1CCN(Cc2ccc(Cl)c(Cl)c2)CC1` [Example 1, 2-[(2-{[1-(3,4-Dichlorobenzyl)piperidin-4-yl]amino}-2-oxoethyl)thio]benzoic acid], for which the Ki in data set [1] is 251 nM. For the same compound, in data set [2], the CLint scaled at 1 µM was less than 3 mL/min/kg.
On the same counts, the results for `O=C(CSc1cccc(C(=O)O)c1)NC1CCN(Cc2ccc(Cl)c(Cl)c2)CC1` [Example 4, 3-[(2-{[1-(3,4-Dichlorobenzyl)piperidin-4-yl]amino}-2-oxoethyl)thio]benzoic acid] are 12.6 nM and less than 3 mL/min/kg.
In the same order, the values of `O=C(CSc1ccc(C(=O)O)cc1)NC1CCN(Cc2ccc(Cl)c(Cl)c2)CC1` [Example 7, 4-[(2-{[1-(3,4-Dichlorobenzyl)piperidin-4-yl]amino}-2-oxoethyl)thio]benzoic acid] are 6.31 nM and less than 3 mL/min/kg.
In the same order, the values of `O=C(CSc1ccc(C(=O)O)cc1CN1CCOCC1)NC1CCN(Cc2ccc(Cl)c(Cl)c2)CC1` [Example 18, 4-[(2-{[1-(3,4-Dichlorobenzyl)piperidin-4-yl]amino}-2-oxoethyl)thio]-3-(morpholin-4-ylmethyl)benzoic acid] are 12.6 nM and 30 mL/min/kg.
